Source: patent US20240050440A1, “THERAPEUTIC TARGETS AND AGENTS FOR THE TREATMENT OF TRIOSEPHOSPHATE ISOMERASE (TPI) DEFICIENCY” (University of Pittsburgh- Of The Commonwealth System of …, priority 2020, published 2024)
Where a SMILES comes first, the peptide text is derived from it. The star is where a group is joined. Cbz = O=C(OCc1ccccc1)*

Legend:
TPI^sugarkill = assay: Isolation and visualization of poly-ubiquitinated TPI from MG132-fed flies; format: in vivo, Drosophila melanogaster; conditions: flies fed 1 mg/mL MG132 for 24 hours at 25° C. or 29° C.; immunoprecipitation and Western blot
Description: Conjugated anti-TPI resin was prepared with TPI antibody (FL249, Santa Cruz Biotechnology) and the Pierce co-immunoprecipitation kit. Homozygous TPI^sugarkill flies were fed 1 mg/mL MG132 (Sigma) on 10% sucrose for 24 hours at 25° C. or 29° C. Following incubation, flies were homogenized using a mechanical homogenizer in Pierce co-immunoprecipitation lysis buffer with Protease Inhibitor Mini-Tablets (Pierce), MG132 (0.1 mg/mL, Sigma) and NEM (1 μM, Sigma). Protein concentration was determined by BCA assay (Pierce). The lysates (2 mg) were incubated on a rotator overnight at 4° C. with 100 μl of the conjugated anti-TPI resin. The columns were washed three times with 200 μL of Pierce IP wash buffer with Protease Inhibitor Mini-Tablets (Pierce), MG132 (0.1 mg/mL) and 1 μM NEM. A bead only control provided by the Pierce IP kit served as a negative control. The samples were eluted into 2×SDS-PAGE sample buffer (130 mM Tris (pH 6.8), 4% SDS, 4% beta-mercaptoethanol, 20% glycerol, 0.1% bromophenol blue) with Protease Inhibitor Mini-Tablets (Pierce), MG132 (0.1 mg/mL, Sigma) and NEM (1 μM, Sigma). Western blots were conducted as described above with the exception that the blots were boiled in distilled water for 30 minutes prior to blocking. The antibody used for detection of ubiquitin was anti-ubiquitin (1:1000, 6C1 mouse Santa Cruz Biotechnology). […]

[1] = tested on: TPI^E105D-GFP fusion protein; assay: HEK293 TPI^E105D-GFP high content assay (GFP intensity per cell); format: cell-based, human; conditions: for repeat of hit activity in every condition: NIH Clinical Collection, 10 μM and 1 μM, 24 hours and 48 hours; for TPI^E105D-GFP fluorescence (in words): prescreen of putative protein stabilizing compounds, 48 hours; for hit call in LOPAC screen: 10 μM, 48 hour condition
Description: HEK293 cells expressing a mutant (E105D) TPI-GFP fusion protein were created using the Flp-In System (Invitrogen, Catalog #K6010-01 and K6010-02) following the manufacturer's protocol. Briefly, a host cell line expressing the transfected Flp-In target site vector, pFRT/lacZeo, was obtained following zeocin resistance selection. TPI^E105D-GFP fusion construct was cloned into the pcDNA 5/FRT expression vector. Co-transfection of 0.1 μg of the pcDNA 5/FRT construct (390 ng/μL) and 0.9 μg of the Flp recombinase expression vector (pOG44, 127 ng/μL) into the Flp-In host cell line was performed with 3.75 μL Lipofectamine 2000 reagent (Invitrogen). A hygromycin dose response was performed to determine the minimum concentration of hygromycin B required to kill untransfected host cells. […] Expression of the TPI^E105D-GFP fusion protein was verified via Western blot. The cells were cultured using standard methods (37° C., 5% CO2) in normal media (DMEM with 10% serum, 100 U penicillin/100 μg streptomycin/ml (Lonza)). To document subcellular localization of mutant GFP-tagged TPI, nuclei were stained with Hoechst 33342 and imaged on an ImageXpress Ultra confocal high content reader in the UV and GFP channel, respectively. A z-series of images (60× objective, 90 planes, 0.3 μm z-steps) was acquired in both channels, and the color combined stack subjected to 3D reconstruction in MetaXpress. A single slice of the reconstructed image was chosen to illustrate the phenotype of mutant TPI-GFP expression.
HEK293 TPI^E105D-GFP cells were plated (50,000 cells/well in collagen-coated 96-well thin-bottom microplates and allowed to attach overhight. Cells were treated with four point, two-fold gradients of 5× treatment solutions of test agents (6 replicates per condition). The final concentration of vehicle was 0.2%. After 48 hours in culture, cells were preincubated with propidium iodide (PI) for 30 minutes and imaged live in the GFP and Texas Red channels on an ImageXpress Ultra high content reader (Molecular Devices) using a 20× objective Images were analyzed with the multiwavelength cell scoring application using GFP to define and enumerate cells. The integrated GFP intensity per cell was used to quantify mutant TPI expression; the number of cells was used as a proxy for growth inhibition and/or cell loss; and the percentage of cells that exceeded a threshold for PI based on vehicle-treated controls was used to measure acute toxicity (necrosis).
Assay ready daughter plates of the NIH Clinical Collection containing 2 μL of a 1 mM DMSO stock were reconstituted in DMEM (60 μL) to yield a 30 μM intermediate treatment concentration. 60 μl of DMSO (3%) was added to columns 1 and 24, and 60 μL of 600 nM luminespib was added to columns 2 and 23 to serve as negative and positive controls, respectively. Aliquots (15 μl) were transferred directly to cells in 384 well plates using an Agilent Bravo liquid handling robot (final concentration in assay, 10 μM). For the 1 μM condition, an aliquot of the 30 μM treatment solution was diluted 1:10 and controls added as above. Aliquots (15 μl) were transferred to cells to yield a […] final concentration. Plates were centrifuged for 30 seconds at 200×g and incubated at 37° C. After 24 hours, plates were imaged live in the GFP channel and returned to the incubator; after 48 hours cells were stained with PI, imaged live in the GFP and PI channels, and analyzed as described above. The LOPAC library was screened using the same procedure except that only the 10 μM, 48 hour condition was used.
A pilot library screen was performed using the NIH Clinical Collection in the HEK TPI^E105D-GFP cell line. The NIH Clinical Collection maintained at the UPDDI contains 446 FDA approved drugs and small molecules that have a history of use in human clinical trials. The collections were assembled through the Molecular Libraries and Imaging Initiative as part of its mission to enable the use of compound screens in biomedical research. […]

TPI^E105D-GFP = assay: High-content analysis in U2OS TPI^E105D-GFP cells; format: cell-based, human; conditions: 48 hours
Description: U2OS osteosarcoma cells (ATCC HTB-96) engineered to express the mutant (E105D) TN-GFP protein were generated using the identical method described above for HEK cells and maintained in McCoy's 5A medium (ThermoFisher 16600082).
(§1) FB303 cells were plated (1000/well) in a 384 well collagen-coated microplate. Cells were treated with vehicle (DMSO) or ten-point, two-fold gradients of test compounds for 48 hours in quadruplicates. Cells were fixed with 4% formaldehyde and immunostained with an anti-TPI antibody (Santa Cruz sc-30145) followed by a Cy3-conjugated goat anti-rabbit secondary (Jackson Immunoresearch). Nuclei were counterstained with Hoechst 33342 Images were acquired on an OPERA Phenix high-content imager (20× air objective, widefield, 4 fields/well) and analyzed for total cellular GFP intensity (HEK and U2OS) or total cellular Cy3 intensity (FB303) using Harmony 5.0 image analysis software (Perkin Elmer).

TPI = assay: High-content analysis of TPI levels in patient fibroblasts by immunocytochemistry; format: cell-based, human; conditions: 48 hours
Description: as §1

[2] = tested on: TPI^E105D-GFP fusion protein; assay: HEK293 TPI^E105D-GFP high content assay (GFP intensity per cell); format: cell-based, human; conditions: fresh repurchased samples, ten-point twofold dose-response
[3] = Luo et al. 2015; said to correlate with concentrations needed to increase TPI^E105D-GFP in HEK cells; cited from earlier work

For CC(C)C[C@@H](C=O)NC(=O)[C@H](CC(C)C)NC(=O)[C@H](CC(C)C)NC(=O)OCc1ccccc1 [MG132] (Cbz-Leu-Leu-Leu-aldehyde), the “polyubiquitinated TPI^sugarkill signal” value (TPI^sugarkill) was “accumulation of polyubiquitinated signal”.

With C[C@H]1[C@H](OC(=O)CCC(=O)O)O[C@@H]2O[C@@]3(C)CC[C@H]4[C@H](C)CC[C@@H]1[C@@]24OO3 [artesunate, 4-oxo-4-[[(1R,4S,5R,8S,9R,10S,12R,13R)-1,5,9-trimethyl-11,14,15,16-tetraoxatetracyclo[10.3.1.0^4,13.0^8,13]hexadecan-10-yl]oxy]butanoic acid] the “repeat of hit activity in every condition” value (shortened to “repeat of hit activity”) [1] was “repeated in every condition”, the “dose-response confirmation of activity, total GFP levels per cell” value (TPI^E105D-GFP) was “confirmed activity” and the “dose-response confirmation of activity, total anti-TPI fluorescence” value (TPI) was “confirmed activity”.

With CC(C)C[C@H](NC(=O)[C@H](Cc1ccccc1)NC(=O)c1cnccn1)B(O)O [bortezomib] the “TPI^E105D-GFP fluorescence (in words)” value [1] was “significant increase”.

For COc1ccccc1OCCNCC(O)COc1cccc2[nH]c3ccccc3c12 (stereo not shown) [carvedilol], the “repeat of hit activity” value [1] was “repeated in every condition”.

For C[C@@H]1C[C@@H]([C@H](O)CC2CC(=O)NC(=O)C2)C(=O)[C@@H](C)C1 [cycloheximide], the “TPI^E105D-GFP fluorescence (in words)” value [1] was “significant increase”.

In the case of O=C(O)C[C@H](O)C[C@H](O)/C=C/c1c(C2CC2)nc2ccccc2c1-c1ccc(F)cc1 [itavastatin], the “repeat of hit activity” value [1] is listed as “repeated in every condition”, the “concentration dependence of TPI^E105D-GFP increase” value [2] is listed as “concentration-dependent increases” and the “peak plasma levels in humans” value [3] is listed as 0.55 µM.

For CC[C@H](C)C(=O)O[C@H]1CCC=C2C=C[C@H](C)[C@H](CC[C@@H]3C[C@@H](O)CC(=O)O3)[C@H]21 [mevastatin], the “hit call in LOPAC screen” value [1] was “positive hits”.

For Cc1[nH]c(=O)c(C#N)cc1-c1ccncc1 [milrinone], the “repeat of hit activity” value [1] was “repeated in every condition”.

In the case of Oc1ccc(/C=C/c2cc(O)cc(O)c2)cc1 [resveratrol, 3,5,4′-trihydroxy-trans-stilbene], the “hit call in LOPAC screen” value [1] was “positive hits”, the “dose-response confirmation of activity, total GFP levels per cell” value (TPI^E105D-GFP) was “confirmed activity” and the “dose-response confirmation of activity, total anti-TPI fluorescence” value (TPI) was “confirmed activity”. The “concentration dependence of TPI^E105D-GFP increase” value [2] was “concentration-dependent increases”.
